The subject of one series is BXPC3, SNU16, Hep3B 2.1-7 subcutaneous tumors. The series is described as follows: tumor suppression in nude mice with subcutaneously transplanted tumors. Format: in vivo. The settings on record: BXPC3, SNU16, Hep3B 2.1-7 transplants, within 3-4 weeks. The text has this: These preferred compounds (e.g., IIIb-08, IIIb-09, IIIb-45, IIIb-50, IIIb-55, IIIb-56, IIIb-57, IIIb-58, IIIb-60, IIIb-61, IIIb-65) are currently being used to […] in nude mice subcutaneously transplanted with pancreatic cancer cell line (BXPC3), gastric cancer cell line (SNU16), liver cancer cell line (Hep3B 2.1-7) and other tumor suppressive effects have been observed in vivo, the tumor suppression rate of subcutaneous tumors in nude mice could reach 80-110% within 3-4 weeks. […] Therefore, the preferred compounds “IIIb-08, IIIb-09, IIIb-45, IIIb-50, IIIb-55, IIIb-56, IIIb-57, IIIb-58, IIIb-60, IIIb-61, IIIb-65” designed and synthesized by the present invention not only have better inhibitory activity, but also have better safety and drug-forming properties, which are valuable for further preclinical studies such as pharmacotoxicology and clinical trials.
hERG potassium channels, sequence (Q12809 whole entry): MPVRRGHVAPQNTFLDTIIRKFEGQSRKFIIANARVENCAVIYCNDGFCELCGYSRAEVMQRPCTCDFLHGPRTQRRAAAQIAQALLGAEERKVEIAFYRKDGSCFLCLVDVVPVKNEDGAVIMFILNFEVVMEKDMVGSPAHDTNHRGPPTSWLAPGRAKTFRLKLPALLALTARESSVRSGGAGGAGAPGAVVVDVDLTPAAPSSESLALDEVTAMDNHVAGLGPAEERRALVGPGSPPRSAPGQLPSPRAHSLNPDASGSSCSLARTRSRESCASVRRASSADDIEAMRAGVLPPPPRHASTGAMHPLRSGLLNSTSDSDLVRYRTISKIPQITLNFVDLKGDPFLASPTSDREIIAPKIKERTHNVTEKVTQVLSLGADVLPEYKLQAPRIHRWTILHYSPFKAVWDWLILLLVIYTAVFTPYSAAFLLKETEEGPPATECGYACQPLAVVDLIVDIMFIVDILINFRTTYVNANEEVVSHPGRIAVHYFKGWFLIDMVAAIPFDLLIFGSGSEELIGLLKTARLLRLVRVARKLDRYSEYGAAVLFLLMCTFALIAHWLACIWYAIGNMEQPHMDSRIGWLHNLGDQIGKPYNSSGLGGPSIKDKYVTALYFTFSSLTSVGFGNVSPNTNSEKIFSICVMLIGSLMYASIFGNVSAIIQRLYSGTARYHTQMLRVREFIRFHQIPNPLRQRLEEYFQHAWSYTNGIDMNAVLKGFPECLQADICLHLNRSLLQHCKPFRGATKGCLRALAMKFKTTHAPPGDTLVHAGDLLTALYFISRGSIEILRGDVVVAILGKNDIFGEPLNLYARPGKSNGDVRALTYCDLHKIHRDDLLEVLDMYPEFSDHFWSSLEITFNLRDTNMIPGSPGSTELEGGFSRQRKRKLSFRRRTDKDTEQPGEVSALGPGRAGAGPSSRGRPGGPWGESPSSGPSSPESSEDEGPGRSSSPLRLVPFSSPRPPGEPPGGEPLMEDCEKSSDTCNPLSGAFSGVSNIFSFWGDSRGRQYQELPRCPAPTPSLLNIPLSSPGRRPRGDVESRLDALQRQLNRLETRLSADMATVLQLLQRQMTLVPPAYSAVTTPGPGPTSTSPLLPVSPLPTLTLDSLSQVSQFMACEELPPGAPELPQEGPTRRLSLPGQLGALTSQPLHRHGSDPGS
On to `NC(=O)c1cc2c(Oc3c(F)cc(NC(=O)NC4CC4)c(Cl)c3F)ccnc2cc1OCC(F)F` [IIIb-56], for which the “tumor suppression rate of subcutaneous tumors” value is on record as 80-110%.
For the compound `NC(=O)c1cc2c(Oc3c(F)cc(NC(=O)NC4CC4)c(Cl)c3F)ccnc2cc1OCC(F)(F)F` [IIIb-57], the “tumor suppression rate of subcutaneous tumors” value is 80-110%.
On the same count and under the same terms, as for `N#CCCOc1cc2nccc(Oc3c(F)cc(NC(=O)NC4CC4)c(Cl)c3F)c2cc1C(N)=O` [IIIb-65], the figure is 80-110%.

The subject of the next series is hepatocellular carcinoma cell line (Hep3B 2.1-7). The series can be described thus: tumor cell proliferation inhibition (CTG), hepatocellular carcinoma cell line. It is filed as cell-based. The settings on record: Homo sapiens, 72 hours.
As usually defined, the IC50 is the point on the concentration scale where inhibition reaches its midpoint. Regarding `NC(=O)c1cc2c(Oc3c(F)cc(NC(=O)NC4CC4)c(Cl)c3F)ccnc2cc1OCC(F)F` [IIIb-56], the IC50 is less than 2500 nM.
On to `NC(=O)c1cc2c(Oc3c(F)cc(NC(=O)NC4CC4)c(Cl)c3F)ccnc2cc1OCC(F)(F)F` [IIIb-57], for which the IC50 is less than 2500 nM.
On the same count and under the same terms, as for `N#CCCOc1cc2nccc(Oc3c(F)cc(NC(=O)NC4CC4)c(Cl)c3F)c2cc1C(N)=O` [IIIb-65], the figure is less than 2500 nM.

The target of a further series is VEGFR1 (FLT1) (Homo sapiens (Human), UniProt P17948). The series is described as follows: kinase inhibition, Mobility-Shift Assay. Format: biochemical. Conditions: 278 μM ATP.
VEGFR1 (FLT1), sequence (P17948 27-1338): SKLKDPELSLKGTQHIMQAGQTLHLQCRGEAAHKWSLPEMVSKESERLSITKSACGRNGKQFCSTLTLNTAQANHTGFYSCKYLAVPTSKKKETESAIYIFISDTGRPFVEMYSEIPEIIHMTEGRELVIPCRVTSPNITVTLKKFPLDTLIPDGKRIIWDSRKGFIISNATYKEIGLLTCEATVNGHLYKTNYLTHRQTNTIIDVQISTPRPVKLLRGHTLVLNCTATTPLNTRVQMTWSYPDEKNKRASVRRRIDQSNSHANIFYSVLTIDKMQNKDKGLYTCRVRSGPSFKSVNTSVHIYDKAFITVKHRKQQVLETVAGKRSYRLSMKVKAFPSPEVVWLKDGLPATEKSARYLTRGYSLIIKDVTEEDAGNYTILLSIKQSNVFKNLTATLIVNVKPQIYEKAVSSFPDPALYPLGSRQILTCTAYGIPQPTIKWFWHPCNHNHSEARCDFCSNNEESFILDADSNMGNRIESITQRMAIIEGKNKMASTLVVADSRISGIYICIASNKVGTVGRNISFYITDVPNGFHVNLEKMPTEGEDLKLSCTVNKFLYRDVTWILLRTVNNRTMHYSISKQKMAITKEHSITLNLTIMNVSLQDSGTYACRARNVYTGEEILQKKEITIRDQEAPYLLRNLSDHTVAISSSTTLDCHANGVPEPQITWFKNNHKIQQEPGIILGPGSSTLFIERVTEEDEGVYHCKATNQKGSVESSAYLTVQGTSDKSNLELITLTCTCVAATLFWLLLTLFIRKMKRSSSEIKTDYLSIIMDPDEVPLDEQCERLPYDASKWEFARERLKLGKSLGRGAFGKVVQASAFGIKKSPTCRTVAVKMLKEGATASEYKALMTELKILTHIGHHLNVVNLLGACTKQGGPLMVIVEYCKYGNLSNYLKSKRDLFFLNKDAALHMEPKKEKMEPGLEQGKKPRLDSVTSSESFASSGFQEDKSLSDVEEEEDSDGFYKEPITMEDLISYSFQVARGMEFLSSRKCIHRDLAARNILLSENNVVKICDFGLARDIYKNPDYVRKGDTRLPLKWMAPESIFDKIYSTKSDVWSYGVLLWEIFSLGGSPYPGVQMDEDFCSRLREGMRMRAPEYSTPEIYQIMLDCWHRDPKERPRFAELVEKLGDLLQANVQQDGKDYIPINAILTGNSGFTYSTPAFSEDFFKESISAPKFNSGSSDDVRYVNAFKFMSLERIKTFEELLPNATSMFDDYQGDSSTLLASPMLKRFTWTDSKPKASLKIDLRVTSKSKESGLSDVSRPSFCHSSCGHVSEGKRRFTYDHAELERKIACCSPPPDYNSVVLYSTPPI
Consider `NC(=O)c1cc2c(Oc3c(F)cc(NC(=O)NC4CC4)c(Cl)c3F)ccnc2cc1OCC(F)F` [IIIb-56], for which the IC50 is less than 5 nM.
The same measure, in the same setting: as for `NC(=O)c1cc2c(Oc3c(F)cc(NC(=O)NC4CC4)c(Cl)c3F)ccnc2cc1OCC(F)(F)F` [IIIb-57], the figure is less than 5 nM; as for `N#CCCOc1cc2nccc(Oc3c(F)cc(NC(=O)NC4CC4)c(Cl)c3F)c2cc1C(N)=O` [IIIb-65], less than 5 nM.

In a further series the test system is prostatic cancer (PC-3). The series can be described thus: tumor cell proliferation inhibition (CTG), PC-3. It is filed as cell-based. The settings on record: 72 hours.
For `NC(=O)c1cc2c(Oc3c(F)cc(NC(=O)NC4CC4)c(Cl)c3F)ccnc2cc1OCC(F)F` [IIIb-56], the IC50 lay within 5000 to 10000 nM.
The same measure, in the same setting: as for `NC(=O)c1cc2c(Oc3c(F)cc(NC(=O)NC4CC4)c(Cl)c3F)ccnc2cc1OCC(F)(F)F` [IIIb-57], the figure is 5000 to 10000 nM; as for `N#CCCOc1cc2nccc(Oc3c(F)cc(NC(=O)NC4CC4)c(Cl)c3F)c2cc1C(N)=O` [IIIb-65], 5000 to 10000 nM.

The next series has as its system pancreatic cancer cell line (BXPC3). The series is described as follows: tumor cell proliferation inhibition (CTG), pancreatic cancer cell line. It is filed as cell-based. Conditions: Homo sapiens, BXPC-3, 72 hours.
Turning to `NC(=O)c1cc2c(Oc3c(F)cc(NC(=O)NC4CC4)c(Cl)c3F)ccnc2cc1OCC(F)F` [IIIb-56], the IC50 was less than 5000 nM.
`NC(=O)c1cc2c(Oc3c(F)cc(NC(=O)NC4CC4)c(Cl)c3F)ccnc2cc1OCC(F)(F)F` [IIIb-57] registered an IC50 of less than 5000 nM.
On the same count and under the same terms, next, `N#CCCOc1cc2nccc(Oc3c(F)cc(NC(=O)NC4CC4)c(Cl)c3F)c2cc1C(N)=O` [IIIb-65]: less than 5000 nM.

In a further series the target is RET (Homo sapiens (Human), UniProt P07949). The series is described as follows: kinase inhibition, Mobility-Shift Assay. It is filed as biochemical. The settings on record: 23 μM ATP.
In the case of `NC(=O)c1cc2c(Oc3c(F)cc(NC(=O)NC4CC4)c(Cl)c3F)ccnc2cc1OCC(F)F` [IIIb-56], the IC50 is less than 5 nM.
As to `NC(=O)c1cc2c(Oc3c(F)cc(NC(=O)NC4CC4)c(Cl)c3F)ccnc2cc1OCC(F)(F)F` [IIIb-57], the IC50 is less than 5 nM.
On the same count and under the same terms, next, `N#CCCOc1cc2nccc(Oc3c(F)cc(NC(=O)NC4CC4)c(Cl)c3F)c2cc1C(N)=O` [IIIb-65]: less than 5 nM.

Another series concerns the target hERG potassium channels (Homo sapiens (Human), UniProt Q12809). The series is described as follows: in vitro inhibitory effect of hERG, whole-cell patch clamp. It is filed as cell-based. Conditions: whole-cell recording, room temperature.
For `NC(=O)c1cc2c(Oc3c(F)cc(NC(=O)NC4CC4)c(Cl)c3F)ccnc2cc1OCC(F)F` [IIIb-56], the IC50 was greater than 30000 nM.
Still for that read-out and setting: next, `NC(=O)c1cc2c(Oc3c(F)cc(NC(=O)NC4CC4)c(Cl)c3F)ccnc2cc1OCC(F)(F)F` [IIIb-57]: greater than 30000 nM; `N#CCCOc1cc2nccc(Oc3c(F)cc(NC(=O)NC4CC4)c(Cl)c3F)c2cc1C(N)=O` [IIIb-65]: greater than 30000 nM.

In the next series the target is VEGFR3 (FLT4) (Homo sapiens (Human), UniProt P35916). The series can be described thus: kinase inhibition, Mobility-Shift Assay. It is filed as biochemical. The settings on record: 84 μM ATP.
VEGFR3 (FLT4), sequence (P35916 25-1363): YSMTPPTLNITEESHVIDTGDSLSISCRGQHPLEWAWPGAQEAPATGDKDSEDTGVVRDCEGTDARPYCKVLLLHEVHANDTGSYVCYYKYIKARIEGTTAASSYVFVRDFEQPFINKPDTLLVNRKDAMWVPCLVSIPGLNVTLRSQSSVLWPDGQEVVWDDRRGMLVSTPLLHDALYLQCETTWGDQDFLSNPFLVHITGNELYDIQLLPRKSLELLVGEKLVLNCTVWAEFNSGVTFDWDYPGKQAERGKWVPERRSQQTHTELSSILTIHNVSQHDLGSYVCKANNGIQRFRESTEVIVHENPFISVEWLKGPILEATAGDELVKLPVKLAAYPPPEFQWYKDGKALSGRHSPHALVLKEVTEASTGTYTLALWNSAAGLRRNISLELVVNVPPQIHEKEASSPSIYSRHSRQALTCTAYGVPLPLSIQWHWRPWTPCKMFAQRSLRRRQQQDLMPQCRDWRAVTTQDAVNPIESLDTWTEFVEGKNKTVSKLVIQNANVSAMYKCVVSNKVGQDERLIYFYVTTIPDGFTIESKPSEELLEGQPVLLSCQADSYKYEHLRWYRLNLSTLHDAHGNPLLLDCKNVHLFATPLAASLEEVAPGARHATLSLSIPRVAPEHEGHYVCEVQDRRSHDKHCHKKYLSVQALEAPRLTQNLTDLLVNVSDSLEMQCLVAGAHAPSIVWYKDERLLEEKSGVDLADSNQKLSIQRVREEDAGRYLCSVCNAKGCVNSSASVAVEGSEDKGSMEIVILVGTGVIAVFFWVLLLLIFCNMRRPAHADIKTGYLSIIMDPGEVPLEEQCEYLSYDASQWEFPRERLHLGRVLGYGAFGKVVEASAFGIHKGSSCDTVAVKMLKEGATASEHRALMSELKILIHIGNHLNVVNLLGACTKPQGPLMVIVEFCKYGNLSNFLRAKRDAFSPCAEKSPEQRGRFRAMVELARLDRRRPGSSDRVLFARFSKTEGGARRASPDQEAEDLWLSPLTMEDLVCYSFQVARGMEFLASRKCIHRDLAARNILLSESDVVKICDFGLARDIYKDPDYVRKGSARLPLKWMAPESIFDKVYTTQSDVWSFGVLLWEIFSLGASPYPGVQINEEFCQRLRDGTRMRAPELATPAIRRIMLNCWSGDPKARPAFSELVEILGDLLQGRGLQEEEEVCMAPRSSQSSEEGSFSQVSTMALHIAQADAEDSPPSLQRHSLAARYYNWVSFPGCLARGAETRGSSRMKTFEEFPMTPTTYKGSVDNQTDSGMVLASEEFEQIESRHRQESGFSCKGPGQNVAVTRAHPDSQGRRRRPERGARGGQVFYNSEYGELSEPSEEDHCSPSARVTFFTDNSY
For the compound `NC(=O)c1cc2c(Oc3c(F)cc(NC(=O)NC4CC4)c(Cl)c3F)ccnc2cc1OCC(F)F` [IIIb-56], the IC50 was less than 5 nM.
On to `NC(=O)c1cc2c(Oc3c(F)cc(NC(=O)NC4CC4)c(Cl)c3F)ccnc2cc1OCC(F)(F)F` [IIIb-57], for which the IC50 was less than 5 nM.
Consider `N#CCCOc1cc2nccc(Oc3c(F)cc(NC(=O)NC4CC4)c(Cl)c3F)c2cc1C(N)=O` [IIIb-65], for which the IC50 was less than 5 nM.

A further series concerns lung cancer cell line (A549). The series is described as follows: tumor cell proliferation inhibition (CTG), lung cancer cell line. The settings on record: Homo sapiens, 72 hours. It is filed as cell-based.
`NC(=O)c1cc2c(Oc3c(F)cc(NC(=O)NC4CC4)c(Cl)c3F)ccnc2cc1OCC(F)F` [IIIb-56] returned an IC50 of less than 2500 nM.
Same read-out and setting: next, `NC(=O)c1cc2c(Oc3c(F)cc(NC(=O)NC4CC4)c(Cl)c3F)ccnc2cc1OCC(F)(F)F` [IIIb-57]: less than 2500 nM; `N#CCCOc1cc2nccc(Oc3c(F)cc(NC(=O)NC4CC4)c(Cl)c3F)c2cc1C(N)=O` [IIIb-65]: less than 2500 nM.

In the next series the test system is kidney cancer cell line (Caki-1). The series is described as follows: tumor cell proliferation inhibition (CTG), kidney cancer cell line. It is filed as cell-based. Conditions: Homo sapiens, 72 hours, read-out: Caki-1 (renal cancer) IC50.
As for `NC(=O)c1cc2c(Oc3c(F)cc(NC(=O)NC4CC4)c(Cl)c3F)ccnc2cc1OCC(F)F` [IIIb-56], the concentration for half-maximal inhibition (IC50) is less than 2500 nM.
Still for that read-out and setting: as for `NC(=O)c1cc2c(Oc3c(F)cc(NC(=O)NC4CC4)c(Cl)c3F)ccnc2cc1OCC(F)(F)F` [IIIb-57], the figure is less than 2500 nM; as for `N#CCCOc1cc2nccc(Oc3c(F)cc(NC(=O)NC4CC4)c(Cl)c3F)c2cc1C(N)=O` [IIIb-65], less than 2500 nM.

For another series, the system named is leukemia cell line (K562). The series can be described thus: tumor cell proliferation inhibition (CTG), leukemia cell line. Format: cell-based. The settings on record: Homo sapiens, 72 hours.
Compound `NC(=O)c1cc2c(Oc3c(F)cc(NC(=O)NC4CC4)c(Cl)c3F)ccnc2cc1OCC(F)F` [IIIb-56] registered an IC50 of less than 5000 nM.
`NC(=O)c1cc2c(Oc3c(F)cc(NC(=O)NC4CC4)c(Cl)c3F)ccnc2cc1OCC(F)(F)F` [IIIb-57] yielded an IC50 of less than 5000 nM.
Still for that read-out and setting: as for `N#CCCOc1cc2nccc(Oc3c(F)cc(NC(=O)NC4CC4)c(Cl)c3F)c2cc1C(N)=O` [IIIb-65], the figure is less than 5000 nM.

The subject of a further series is gastric cancer cell line (SNU16). The series is described as follows: tumor cell proliferation inhibition (CTG), gastric cancer cell line. The settings on record: Homo sapiens, SNU-16, 72 hours, read-out: SUN16 IC50. It is filed as cell-based.
As to `NC(=O)c1cc2c(Oc3c(F)cc(NC(=O)NC4CC4)c(Cl)c3F)ccnc2cc1OCC(F)F` [IIIb-56], the IC50 was less than 5000 nM.
Same read-out and setting: next, `NC(=O)c1cc2c(Oc3c(F)cc(NC(=O)NC4CC4)c(Cl)c3F)ccnc2cc1OCC(F)(F)F` [IIIb-57]: less than 5000 nM; `N#CCCOc1cc2nccc(Oc3c(F)cc(NC(=O)NC4CC4)c(Cl)c3F)c2cc1C(N)=O` [IIIb-65]: less than 5000 nM.

Another series deals with VEGFR2 (KDR) (Homo sapiens (Human), UniProt P35968). The series can be described thus: kinase inhibition, Mobility-Shift Assay. Format: biochemical. The settings on record: VEGFR2, 92 μM ATP.
VEGFR2 (KDR), sequence (P35968 20-1356): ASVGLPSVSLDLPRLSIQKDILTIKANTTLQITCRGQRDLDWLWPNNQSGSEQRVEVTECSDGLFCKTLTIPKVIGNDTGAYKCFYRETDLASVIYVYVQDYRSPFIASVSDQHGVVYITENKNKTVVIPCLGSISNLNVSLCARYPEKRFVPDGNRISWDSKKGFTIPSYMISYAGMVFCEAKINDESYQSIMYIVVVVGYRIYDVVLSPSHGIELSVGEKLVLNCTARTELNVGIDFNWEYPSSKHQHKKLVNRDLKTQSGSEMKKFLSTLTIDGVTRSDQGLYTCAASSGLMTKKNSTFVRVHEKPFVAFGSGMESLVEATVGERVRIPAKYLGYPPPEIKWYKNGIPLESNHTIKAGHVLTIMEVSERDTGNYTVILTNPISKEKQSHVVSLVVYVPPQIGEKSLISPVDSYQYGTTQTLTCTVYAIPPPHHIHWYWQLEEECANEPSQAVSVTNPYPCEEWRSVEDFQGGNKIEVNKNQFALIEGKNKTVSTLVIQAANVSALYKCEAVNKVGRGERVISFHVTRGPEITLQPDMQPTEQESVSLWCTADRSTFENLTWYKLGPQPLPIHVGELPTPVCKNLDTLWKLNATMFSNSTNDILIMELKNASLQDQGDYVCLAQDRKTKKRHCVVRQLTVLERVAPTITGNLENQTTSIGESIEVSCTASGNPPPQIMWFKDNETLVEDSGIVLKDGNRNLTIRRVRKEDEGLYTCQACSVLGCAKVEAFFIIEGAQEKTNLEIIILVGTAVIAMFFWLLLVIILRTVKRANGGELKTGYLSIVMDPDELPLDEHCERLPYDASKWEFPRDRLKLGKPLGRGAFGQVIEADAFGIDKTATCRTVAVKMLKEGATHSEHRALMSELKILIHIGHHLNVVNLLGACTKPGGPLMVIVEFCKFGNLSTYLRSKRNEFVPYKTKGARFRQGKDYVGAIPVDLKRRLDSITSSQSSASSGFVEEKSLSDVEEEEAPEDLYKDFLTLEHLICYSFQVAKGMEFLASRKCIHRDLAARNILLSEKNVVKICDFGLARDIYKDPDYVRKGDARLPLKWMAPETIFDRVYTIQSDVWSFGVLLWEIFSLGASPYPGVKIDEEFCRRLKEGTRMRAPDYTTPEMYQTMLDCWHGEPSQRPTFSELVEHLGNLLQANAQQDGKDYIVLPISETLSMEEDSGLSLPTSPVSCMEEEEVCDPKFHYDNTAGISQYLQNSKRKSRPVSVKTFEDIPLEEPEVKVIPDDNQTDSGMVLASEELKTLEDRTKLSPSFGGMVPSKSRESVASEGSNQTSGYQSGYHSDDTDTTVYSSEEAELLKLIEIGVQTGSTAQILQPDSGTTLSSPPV
With `NC(=O)c1cc2c(Oc3c(F)cc(NC(=O)NC4CC4)c(Cl)c3F)ccnc2cc1OCC(F)F` [IIIb-56], the IC50 was less than 5 nM.
As to `NC(=O)c1cc2c(Oc3c(F)cc(NC(=O)NC4CC4)c(Cl)c3F)ccnc2cc1OCC(F)(F)F` [IIIb-57], the half-maximal inhibitory concentration (IC50) is less than 5 nM.
Same read-out and setting: as for `N#CCCOc1cc2nccc(Oc3c(F)cc(NC(=O)NC4CC4)c(Cl)c3F)c2cc1C(N)=O` [IIIb-65], the figure is less than 5 nM.

A further series deals with FGFR2 (Homo sapiens (Human), UniProt P21802). The series is described as follows: kinase inhibition, Mobility-Shift Assay. Format: biochemical. The settings on record: 1.9 μM ATP.
For the compound `NC(=O)c1cc2c(Oc3c(F)cc(NC(=O)NC4CC4)c(Cl)c3F)ccnc2cc1OCC(F)F` [IIIb-56], the IC50 was less than 50 nM.
Same read-out and setting: next, `NC(=O)c1cc2c(Oc3c(F)cc(NC(=O)NC4CC4)c(Cl)c3F)ccnc2cc1OCC(F)(F)F` [IIIb-57]: less than 50 nM.
The same measure, in the same setting: next, `N#CCCOc1cc2nccc(Oc3c(F)cc(NC(=O)NC4CC4)c(Cl)c3F)c2cc1C(N)=O` [IIIb-65]: less than 50 nM.

A further series concerns cervical cancer cell lines (Hela). The series is described as follows: tumor cell proliferation inhibition (CTG), cervical cancer cell line. Format: cell-based. The settings on record: Homo sapiens, 72 hours.
Turning to `NC(=O)c1cc2c(Oc3c(F)cc(NC(=O)NC4CC4)c(Cl)c3F)ccnc2cc1OCC(F)F` [IIIb-56], the IC50 was less than 5000 nM.
As for `NC(=O)c1cc2c(Oc3c(F)cc(NC(=O)NC4CC4)c(Cl)c3F)ccnc2cc1OCC(F)(F)F` [IIIb-57], the IC50 is less than 5000 nM.
Same read-out and setting: next, `N#CCCOc1cc2nccc(Oc3c(F)cc(NC(=O)NC4CC4)c(Cl)c3F)c2cc1C(N)=O` [IIIb-65]: less than 5000 nM.

System in another series: not listed separately
The series can be described thus: MTD toxicity test in rats. It is filed as in vivo. The settings on record: rat, in vivo, 150 mg/kg.
With `NC(=O)c1cc2c(Oc3c(F)cc(NC(=O)NC4CC4)c(Cl)c3F)ccnc2cc1OCC(F)F` [IIIb-56], the “MTD toxicity test, clinical outcome” value is “no abnormalities such as death”.
Turning to `NC(=O)c1cc2c(Oc3c(F)cc(NC(=O)NC4CC4)c(Cl)c3F)ccnc2cc1OCC(F)(F)F` [IIIb-57], the “MTD toxicity test, clinical outcome” value was “no abnormalities such as death”.
Still for that read-out and setting: next, `N#CCCOc1cc2nccc(Oc3c(F)cc(NC(=O)NC4CC4)c(Cl)c3F)c2cc1C(N)=O` [IIIb-65]: “no abnormalities such as death”.

Staying with this series, now noted: rats, 150 mg/kg, QD, 14 days; heart, liver, lungs, kidneys, stomach, intestines and other organs.
Take `NC(=O)c1cc2c(Oc3c(F)cc(NC(=O)NC4CC4)c(Cl)c3F)ccnc2cc1OCC(F)F` [IIIb-56]: the “autopsy results of organs” value is recorded as “did not reveal any abnormal changes”.
Same read-out and setting: next, `NC(=O)c1cc2c(Oc3c(F)cc(NC(=O)NC4CC4)c(Cl)c3F)ccnc2cc1OCC(F)(F)F` [IIIb-57]: “did not reveal any abnormal changes”.
`N#CCCOc1cc2nccc(Oc3c(F)cc(NC(=O)NC4CC4)c(Cl)c3F)c2cc1C(N)=O` [IIIb-65]: the “autopsy results of organs” value is given as “did not reveal any abnormal changes”.

These data come from US11912663B2, “Multi-targeted tyrosine kinase inhibitors and their pharmaceutical uses” (Shanghai AB PharmaTech Ltd., priority 2021, dated 2024).
